Laboratory results: ChEMBL document CHEMBL1124978, “Direct C-glycosylation of guanine analogues: the synthesis and antiviral activity of certain 7- and 9-deazaguanine C-nucleosides” (1990)

Key:
Assay type in all cases: functional
Details in all cases: route intraperitoneal
Mus musculus [1] = assay: Tested against Forest virus infection in mice at dose 100 mg/kg administered intraperitoneally; 7/12(58)
Mus musculus [2] = assay: Tested against Forest virus infection in mice at dose 100 mg/kg administered intraperitoneally
Mus musculus [3] = assay: Tested against Forest virus infection in mice at dose 100 mg/kg administered intraperitoneally; 10/12(83)
Mus musculus [4] = assay: Tested against Forest virus infection in mice at dose 100 mg/kg administered intraperitoneally; 1/12(8)
Mus musculus [5] = assay: Tested against Forest virus infection in mice at dose 100 mg/kg administered intraperitoneally in experiment 2; 11/12(92)
Mus musculus [6] = assay: Tested against Forest virus infection in mice at dose 100 mg/kg administered intraperitoneally in experiment 1; 9/12(75)
Mus musculus [7] = assay: Tested against Forest virus infection in mice at dose 100 mg/kg administered intraperitoneally in experiment 1
Mus musculus [8] = assay: Tested against Forest virus infection in mice at dose 100 mg/kg administered intraperitoneally in experiment 2
Mus musculus [9] = assay: Tested against Forest virus infection in mice at dose 100 mg/kg administered intraperitoneally in experiment 3; 11/12(92)
Mus musculus [10] = assay: Tested against Forest virus infection in mice at dose 100 mg/kg administered intraperitoneally in experiment 3
Mus musculus [11] = assay: Tested against Forest virus infection in mice at dose 100 mg/kg administered intraperitoneally; 0/12(0)

Question: Which Survivors / total (Mus musculus [1]) does the source give for `CN1C(Br)=C([C@@H]2O[C@H](CO)[C@@H](O)[C@H]2O)C2=NC(N)=NC(=O)C21` (stereo partly specified) here?
Answer: Its Survivors / total is 7%.

Question: What about the Mean survival time (Mus musculus [2]) of the same compound?
Answer: The Mean survival time was 7 days.

Question: For `CN1C(Cl)=C([C@@H]2O[C@H](CO)[C@@H](O)[C@H]2O)C2=NC(N)=NC(=O)C21` (stereo partly specified), which Mean survival time (Mus musculus [2]) is on record?
Answer: Its Mean survival time is 11 days.

Question: What about the Survivors / total (Mus musculus [3]) of the same compound?
Answer: The Survivors / total was 10%.

Question: How did the Mean survival time (Mus musculus [2]) turn out when `NC1=NC(=O)C2NC=C([C@@H]3O[C@H](CO)[C@@H](O)[C@H]3O)C2=N1` (stereo partly specified) was run?
Answer: The Mean survival time was 7.3 days.

Question: And the Survivors / total (Mus musculus [4])?
Answer: Its Survivors / total is 8.33%.

Question: With `CN1C=C([C@@H]2O[C@H](CO)[C@@H](O)[C@H]2O)C2=NC(N)=NC(=O)C21` (stereo partly specified) as the compound, how does the Mean survival time (Mus musculus [2]) read?
Answer: The Mean survival time was 8.1 days.

Question: And the Survivors / total (Mus musculus [4])?
Answer: Its Survivors / total is 8.33%.

Question: For `Nc1nc(=O)c2sc(=O)n([C@@H]3O[C@H](CO)[C@@H](O)[C@H]3O)c2[nH]1` [ISATORIBINE], which Survivors / total (Mus musculus [5]) is on record?
Answer: Its Survivors / total is 91.7%.

Question: And the Survivors / total (Mus musculus [6])?
Answer: The Survivors / total was 75%.

Question: What about the Mean survival time (Mus musculus [7]) of the same compound?
Answer: The Mean survival time was 8.3 days.

Question: And the Mean survival time (Mus musculus [8])?
Answer: The Mean survival time was 10 days.

Question: And the Survivors / total (Mus musculus [9])?
Answer: Its Survivors / total is 91.7%.

Question: And the Mean survival time (Mus musculus [10])?
Answer: Its Mean survival time is 9 days.

Question: How did the Mean survival time (Mus musculus [2]) turn out when `CC1=C([C@@H]2O[C@H](CO)[C@@H](O)[C@H]2O)C2C(=O)N=C(N)N=C2N1` (stereo partly specified) was run?
Answer: Its Mean survival time is 7.2 days.

Question: And the Survivors / total (Mus musculus [11])?
Answer: The Survivors / total was 0%.
